Data published in publication PMC12203311, “Design, synthesis, in silico and in vitro evaluation of pyrrole–indole hybrids as dual tubulin and aromatase inhibitors with potent anticancer activities” (RSC Advances, 2025).
Blank lines part the entries; values can stand above or below the compound they belong to.

What was measured:
[1] = system: CCRF-CEM; assay: NCI60 five-dose screen; type: cell-based; details: Homo sapiens, leukemia; for CC50: read-out: LC50 (the source's name)
[2] = system: MCF7; assay: NCI60 five-dose screen; type: cell-based; details: Homo sapiens, MCF7, breast cancer; for CC50: read-out: LC50 (the source's name)
[3] = system: T-47D; assay: NCI60 five-dose screen; type: cell-based; details: Homo sapiens, T47D, breast cancer; for CC50: read-out: LC50 (the source's name)
[4] = system: SN12C; assay: NCI60 five-dose screen; type: cell-based; details: Homo sapiens, renal cancer; for CC50: read-out: LC50 (the source's name)
[5] = system: U251; assay: NCI60 five-dose screen; type: cell-based; details: Homo sapiens, U-251, U251, CNS cancer; for CC50: read-out: LC50 (the source's name)
[6] = system: MALME-3M; assay: NCI60 five-dose screen; type: cell-based; details: Homo sapiens, melanoma; for CC50: read-out: LC50 (the source's name)
[7] = system: SF-268; assay: NCI60 five-dose screen; type: cell-based; details: Homo sapiens, SF-268, CNS cancer; for CC50: read-out: LC50 (the source's name)
[8] = system: SR; assay: NCI60 five-dose screen; type: cell-based; details: Homo sapiens, leukemia; for CC50: read-out: LC50 (the source's name)
[9] = system: A498; assay: NCI60 five-dose screen; type: cell-based; details: Homo sapiens, A498, renal cancer; for CC50: read-out: LC50 (the source's name)
[10] = system: RXF 393; assay: NCI60 five-dose screen; type: cell-based; details: Homo sapiens, RXF 393, renal cancer; for CC50: read-out: LC50 (the source's name)
[11] = molecular target: T1, porcine brain tubulin (Sus scrofa, UniProt P02550+P02554); assay: Tubulin polymerisation assay (fluorescence-based); type: biochemical; details: 10 µM, 37 °C
T1 construct: a solution containing porcine brain tubulin (2 mg mL^−1); purchased Cytoskeleton BK011P; host or cells: porcine brain (tissue-purified)
Procedure: The tubulin polymerisation experimental protocol followed the method described in this literature.[28] The experimental was using fluorescence-based assay kit (Cytoskeleton, catalog no. BK011P). In Brief, 5 µL of test compounds was added to a 96-well plate, then mix with 50 µL of a solution containing porcine brain tubulin (2 mg mL^−1) in buffer with 20% glycerol and 1 mM GTP. A microplate reader (Varioskan™ LUX multimode microplate reader, Thermo Scientific™) was used to measure fluorescence intensity every 60 seconds for 60 minutes, with excitation at 360 nm and emission at 450 nm, maintained at 37 °C throughout the experiment.

[12] = system: SW-620; assay: NCI60 five-dose screen; type: cell-based; details: Homo sapiens, SW-620, colon cancer; for CC50: read-out: LC50 (the source's name)
[13] = system: SK-OV-3; assay: NCI60 five-dose screen; type: cell-based; details: Homo sapiens, SK-OV-3, ovarian cancer; for CC50: read-out: LC50 (the source's name)
[14] = system: NCI60 human cancer cell line panel; assay: NCI60 five-dose screen, ranges over the panel; type: cell-based; details: five-dose experiment, all cell lines, read-out: GI50 values (range over the panel)

T1 sequence (P02554 whole entry): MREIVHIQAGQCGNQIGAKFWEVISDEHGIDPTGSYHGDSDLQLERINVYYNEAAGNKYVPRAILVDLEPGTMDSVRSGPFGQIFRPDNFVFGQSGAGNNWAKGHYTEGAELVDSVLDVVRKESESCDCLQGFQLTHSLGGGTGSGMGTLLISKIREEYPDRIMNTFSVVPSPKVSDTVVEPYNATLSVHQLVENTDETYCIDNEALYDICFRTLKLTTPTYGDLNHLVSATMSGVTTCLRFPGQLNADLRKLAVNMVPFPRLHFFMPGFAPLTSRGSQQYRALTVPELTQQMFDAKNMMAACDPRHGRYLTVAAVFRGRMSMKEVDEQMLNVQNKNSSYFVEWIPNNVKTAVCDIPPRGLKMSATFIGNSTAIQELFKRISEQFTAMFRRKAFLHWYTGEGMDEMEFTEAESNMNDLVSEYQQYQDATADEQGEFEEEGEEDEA
T1 sequence (P02550 whole entry): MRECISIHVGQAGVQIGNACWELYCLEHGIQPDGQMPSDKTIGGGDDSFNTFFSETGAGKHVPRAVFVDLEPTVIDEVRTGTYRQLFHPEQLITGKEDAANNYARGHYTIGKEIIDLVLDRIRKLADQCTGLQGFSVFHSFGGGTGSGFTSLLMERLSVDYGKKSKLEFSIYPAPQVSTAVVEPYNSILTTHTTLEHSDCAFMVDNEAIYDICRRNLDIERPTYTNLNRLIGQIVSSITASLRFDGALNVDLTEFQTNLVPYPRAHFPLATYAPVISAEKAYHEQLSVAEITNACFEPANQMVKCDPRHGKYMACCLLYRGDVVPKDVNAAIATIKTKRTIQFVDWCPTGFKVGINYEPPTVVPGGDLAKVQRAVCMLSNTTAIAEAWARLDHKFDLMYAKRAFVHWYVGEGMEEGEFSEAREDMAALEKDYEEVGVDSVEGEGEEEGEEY

RFU in tubulin polymerization assay [11]: ~55 arbitrary units
Structure (SMILES): O=C(N/N=C/c1ccc[nH]1)c1[nH]c2ccc(Br)cc2c1-c1ccccc1 [Derivative 3a, (E)-N′-((1H-Pyrrol-2-yl)methylene)-5-bromo-3-phenyl-1H-indole-2-carbohydrazide]
GI50 [1]: 0.345 µM
CC50 [1]: > 100 µM
GI50 [2]: 0.136 µM
CC50 [2]: 29.1 µM
GI50 [3]: 0.341 µM
CC50 [3]: 51.3 µM
GI50 [4]: 0.371 µM
CC50 [4]: 3.97 µM
GI50 [5]: 0.375 µM
CC50 [5]: 12.4 µM
GI50 [6]: 0.32 µM
CC50 [6]: 30.9 µM
GI50 [7]: 0.995 µM
CC50 [7]: 56.4 µM
GI50 [8]: 0.16 µM
CC50 [8]: > 100 µM
GI50 [9]: 2.57 µM
CC50 [9]: 41.6 µM
GI50 [10]: 0.339 µM
CC50 [10]: 35.1 µM
GI50 [12]: 0.352 µM
CC50 [12]: 37.4 µM
GI50 [13]: 0.702 µM
CC50 [13]: 31.8 µM

RFU in tubulin polymerization assay [11]: ~50 arbitrary units
Structure (SMILES): O=C(N/N=C/c1ccc([N+](=O)[O-])[nH]1)c1[nH]c2ccc(Br)cc2c1-c1ccccc1 [Derivative 3p, (E)-5-Bromo-N′-((5-nitro-1H-pyrrol-2-yl)methylene)-3-phenyl-1H-indole-2-carbohydrazide]
GI50 [1]: 0.382 µM
CC50 [1]: > 100 µM
GI50 [2]: 0.394 µM
CC50 [2]: 39 µM
GI50 [3]: 2.4 µM
CC50 [3]: 59.6 µM
GI50 [4]: 1.24 µM
CC50 [4]: 36.7 µM
GI50 [5]: 0.987 µM
CC50 [5]: 39.2 µM
GI50 [6]: 3.23 µM
CC50 [6]: 56.2 µM
GI50 [7]: 1.47 µM
CC50 [7]: 44.2 µM
GI50 [8]: 0.354 µM
CC50 [8]: > 100 µM
GI50 [9]: 2.6 µM
CC50 [9]: 43.7 µM
GI50 [10]: 0.411 µM
CC50 [10]: 41.2 µM
GI50 [12]: 0.249 µM
CC50 [12]: 48.4 µM
GI50 [13]: 2.95 µM
CC50 [13]: 43 µM

tubulin inhibition [11]: no tubulin inhibition properties
Structure (SMILES): O=C(N/N=C/c1cc([N+](=O)[O-])c[nH]1)c1[nH]c2ccc(Br)cc2c1-c1ccccc1 [Derivative 3q, (E)-5-Bromo-N′-((4-nitro-1H-pyrrol-2-yl)methylene)-3-phenyl-1H-indole-2-carbohydrazide]
GI50 [1]: 0.799 µM
CC50 [1]: > 100 µM
GI50 [2]: 0.354 µM
CC50 [2]: > 100 µM
GI50 [3]: 2.21 µM
CC50 [3]: > 100 µM
GI50 [4]: 2.58 µM
CC50 [4]: > 100 µM
GI50 [5]: 0.574 µM
CC50 [5]: 66.8 µM
GI50 [6]: 0.83 µM
CC50 [6]: > 100 µM
GI50 [7]: 0.774 µM
CC50 [7]: > 100 µM
GI50 [8]: 0.405 µM
CC50 [8]: > 100 µM
GI50 [9]: 10.7 µM
CC50 [9]: > 100 µM
GI50 [10]: 0.734 µM
CC50 [10]: > 100 µM
GI50 [12]: 0.38 µM
CC50 [12]: > 100 µM
GI50 [13]: 3.14 µM
CC50 [13]: > 100 µM

RFU in tubulin polymerization assay [11]: ~55 arbitrary units
Structure (SMILES): CCc1c[nH]c(/C=N/NC(=O)c2[nH]c3ccc(Br)cc3c2-c2ccccc2)c1 [Derivative 3t, (E)-5-Bromo-N′-((4-ethyl-1H-pyrrol-2-yl)methylene)-3-phenyl-1H-indole-2-carbohydrazide]
GI50 [1]: 0.368 µM
CC50 [1]: > 100 µM
GI50 [2]: 0.375 µM
CC50 [2]: 33.8 µM
GI50 [3]: 1.59 µM
CC50 [3]: 39.3 µM
GI50 [4]: 0.372 µM
CC50 [4]: 30 µM
GI50 [5]: 0.373 µM
CC50 [5]: 38.2 µM
GI50 [6]: 1.72 µM
CC50 [6]: 48 µM
GI50 [7]: 0.861 µM
CC50 [7]: 51.9 µM
GI50 [8]: 0.446 µM
CC50 [8]: > 100 µM
GI50 [9]: 13.7 µM
CC50 [9]: 54.5 µM
GI50 [10]: 0.217 µM
CC50 [10]: 21 µM
GI50 [12]: 0.431 µM
CC50 [12]: 42.5 µM
GI50 [13]: 0.922 µM
CC50 [13]: 35.4 µM

Further lines, the compound ahead of its results:

Structure (SMILES): Cc1cc(C)c(/C=N/NC(=O)c2[nH]c3ccc(Br)cc3c2-c2ccccc2)[nH]1 [Derivative 3c, (E)-5-Bromo-N′-((3,5-dimethyl-1H-pyrrol-2-yl)methylene)-3-phenyl-1H-2-carbohydrazide]
GI50 [1]: 3.07 µM
CC50 [1]: > 100 µM
GI50 [14]: 1.77 to 8.25 µM
GI50 [2]: 2.3 µM
CC50 [2]: 37.2 µM
GI50 [3]: 4.68 µM
CC50 [3]: 77.6 µM
GI50 [4]: 2.58 µM
CC50 [4]: 32.3 µM
GI50 [5]: 3.21 µM
CC50 [5]: 35.7 µM
GI50 [6]: 3.16 µM
CC50 [6]: 38.5 µM
GI50 [7]: 2.98 µM
CC50 [7]: 53.2 µM
GI50 [9]: 8.25 µM
CC50 [9]: 46.9 µM
GI50 [10]: 2.26 µM
CC50 [10]: 35 µM
GI50 [12]: 3.06 µM
CC50 [12]: 42 µM
GI50 [13]: 6.81 µM
CC50 [13]: 70.8 µM

Structure (SMILES): O=C(N/N=C/c1cc(Br)c(Br)[nH]1)c1[nH]c2ccc(Br)cc2c1-c1ccccc1 [Derivative 3f, (E)-5-Bromo-N′-((4,5-dibromo-1H-pyrrol-2-yl)methylene)-3-phenyl-1H-indole-2-carbohydrazide]
GI50 [1]: 2.89 µM
CC50 [1]: > 100 µM
GI50 [14]: 0.53 to 6.8 µM
GI50 [2]: 1.99 µM
CC50 [2]: 33.7 µM
GI50 [3]: 3.84 µM
CC50 [3]: 74.3 µM
GI50 [4]: 2.15 µM
CC50 [4]: 30.7 µM
GI50 [5]: 2.95 µM
CC50 [5]: 36 µM
GI50 [6]: 2.97 µM
CC50 [6]: 42.4 µM
GI50 [7]: 2.57 µM
CC50 [7]: 65.3 µM
GI50 [9]: 11.1 µM
CC50 [9]: 49.4 µM
GI50 [10]: 1.55 µM
CC50 [10]: 34.3 µM
GI50 [12]: 2.96 µM
CC50 [12]: 41.9 µM
GI50 [13]: 4.76 µM
CC50 [13]: 72.5 µM

Structure (SMILES): CCc1ccc(/C=N/NC(=O)c2[nH]c3ccc(Br)cc3c2-c2ccccc2)[nH]1 [Derivative 3s, (E)-5-Bromo-N′-((5-ethyl-1H-pyrrol-2-yl)methylene)-3-phenyl-1H-indole-2-carbohydrazide]
GI50 [1]: 0.375 µM
CC50 [1]: > 100 µM
GI50 [2]: 0.369 µM
CC50 [2]: 45.9 µM
GI50 [3]: 0.681 µM
CC50 [3]: 52.7 µM
GI50 [4]: 0.392 µM
CC50 [4]: 30.3 µM
GI50 [5]: 0.329 µM
CC50 [5]: 36.7 µM
GI50 [6]: 0.88 µM
CC50 [6]: 46.5 µM
GI50 [7]: 1.47 µM
CC50 [7]: 83 µM
GI50 [8]: 0.419 µM
CC50 [8]: > 100 µM
GI50 [9]: 5.59 µM
CC50 [9]: 47.2 µM
GI50 [10]: 0.194 µM
CC50 [10]: 28.9 µM
RFU in tubulin polymerization assay [11]: ~55 arbitrary units
GI50 [12]: 0.558 µM
CC50 [12]: 43.2 µM
GI50 [13]: 0.514 µM
CC50 [13]: 50.1 µM

Structure (SMILES): CCc1cc[nH]c1/C=N/NC(=O)c1[nH]c2ccc(Br)cc2c1-c1ccccc1 [Derivative 3u, (E)-5-Bromo-N′-((3-ethyl-1H-pyrrol-2-yl)methylene)-3-phenyl-1H-indole-2-carbohydrazide]
GI50 [1]: 2.35 µM
CC50 [1]: 63.8 µM
GI50 [2]: 2.63 µM
CC50 [2]: 37.5 µM
GI50 [3]: 2.17 µM
CC50 [3]: 41.9 µM
GI50 [4]: 2.26 µM
CC50 [4]: 34 µM
GI50 [5]: 2.15 µM
CC50 [5]: 37.8 µM
GI50 [6]: 3.5 µM
CC50 [6]: 40 µM
GI50 [7]: 2.86 µM
CC50 [7]: 42.7 µM
GI50 [8]: 2.02 µM
CC50 [8]: > 100 µM
GI50 [9]: 1.45 µM
CC50 [9]: 55.4 µM
GI50 [10]: 1.19 µM
CC50 [10]: 18.7 µM
tubulin inhibition [11]: weak tubulin inhibitors
GI50 [12]: 3.82 µM
CC50 [12]: 43.3 µM
GI50 [13]: 2.59 µM
CC50 [13]: 42.4 µM
